Test results published in patent US6355799B1, “Substituted benzene compounds, process for their preparation, and herbicidal and defoliant compositions containing them” (ISK Americas Incorporated, priority 1997, dated 2002).

How the values were obtained:
Assay type in all cases: in vivo
[1] = system: redroot pigweed (Amaranthus retroflexus, AMARE); assay: Pre-emerge test, greenhouse herbicide activity screening; conditions: phytotoxicity rating 0-100, 14 days after application
Procedure, shortened: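 Compounds in acetone were track-sprayed at 187 l/ha, 15–1000 g ai/ha, onto sandy loam pots. Pre-emerge seeds were sown one day before spraying, with surface watering afterwards. Post-emerge plants were at the 2–3 leaf stage and sprayed with 0.25% v/v non-ionic surfactant. Injury was rated 0–100 at 14 days.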

[2] = system: large crabgrass (Digitaria sanguinalis, DIGSA); assay: Post-emerge test, greenhouse herbicide activity screening; conditions: post-emerge, 14 days after application, rating scale 0-100
Procedure, shortened: (§1)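 Visual ratings on a 0-100 scale (0 no damage, 100 all plants dead) were taken at 14 days after treatment. Rates of 15-1000 g ai/ha in acetone, 187 l/ha, were sprayed onto soil one day after planting (pre-emerge) or onto 2-3 leaf plants with 0.25% v/v surfactant (post-emerge).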

[3] = system: redroot pigweed (Amaranthus retroflexus, AMARE); assay: as above; conditions: post-emerge, 14 days after application
Procedure, shortened: as §1

[4] = system: johnsongrass (Sorghum halepense, SORHA); assay: as above; conditions: post-emerge, 14 days after application, rating scale 0-100
Procedure, shortened: as §1

[5] = system: barnyardgrass (Echinochloa crus-galli, ECHCG); assay: as above; conditions: post-emerge, 14 days after application, rating scale 0-100
Procedure, shortened: as §1

[6] = system: lambsquarters (Chenopodium album, CHEAL); assay: as above; conditions: post-emerge, 14 days after application, rating scale 0-100
Procedure, shortened: as §1

[7] = system: ivyleaf morningglory (Ipomoea hederacea, IPOHE); assay: as above; conditions: post-emerge, 14 days after application, rating scale 0-100
Procedure, shortened: as §1

[8] = system: sicklepod (Cassia obtusifolia, CASOB); assay: as above; conditions: post-emerge, 14 days after application, rating scale 0-100
Procedure, shortened: as §1

[9] = system: velvetleaf (Abutilon theophrasti, ABUTH); assay: as above; conditions: post-emerge, 14 days after application, rating scale 0-100
Procedure, shortened: as §1

[10] = system: green foxtail (Setaria viridis, SETVI); assay: as above; conditions: post-emerge, 14 days after application, rating scale 0-100
Procedure, shortened: as §1

[11] = system: large crabgrass (Digitaria sanguinalis, DIGSA); assay: Pre-emerge test, greenhouse herbicide activity screening; conditions: phytotoxicity rating 0-100, 14 days after application
Procedure, shortened: (§2)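 Applied at 15–1000 g ai/ha from acetone in 187 l/ha spray volume. Post-emergence applications included 0.25% v/v non-ionic surfactant and reached plants sown 8–21 days before. Pre-emergence applications were incorporated by surface watering. Efficacy or crop damage was rated on a 0–100 scale after 14 days.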

[12] = system: johnsongrass (Sorghum halepense, SORHA); assay: as above; conditions: phytotoxicity rating 0-100, 14 days after application
Procedure, shortened: as §2

[13] = system: barnyardgrass (Echinochloa crus-galli, ECHCG); assay: as above; conditions: phytotoxicity rating 0-100, 14 days after application
Procedure, shortened: as §2

[14] = system: lambsquarters (Chenopodium album, CHEAL); assay: as above; conditions: phytotoxicity rating 0-100, 14 days after application
Procedure, shortened: as §2

[15] = system: ivyleaf morningglory (Ipomoea hederacea, IPOHE); assay: as above; conditions: phytotoxicity rating 0-100, 14 days after application
Procedure, shortened: as §2

[16] = system: sicklepod (Cassia obtusifolia, CASOB); assay: as above; conditions: phytotoxicity rating 0-100, 14 days after application
Procedure, shortened: as §2

[17] = system: velvetleaf (Abutilon theophrasti, ABUTH); assay: as above; conditions: phytotoxicity rating 0-100, 14 days after application
Procedure, shortened: as §2

[18] = system: green foxtail (Setaria viridis, SETVI); assay: as above; conditions: phytotoxicity rating 0-100, 14 days after application
Procedure, shortened: as §2

[19] = system: upland rice (Oryza sp., var. Tebonnet, RICE); assay: Pre-emerge test, crop safety; conditions: crop damage rating 0-100, 14 days after application
Procedure, shortened: (§3)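 Plants grown in 10 cm pots of sandy loam mix received acetone-dissolved compounds through a moving flat-fan nozzle. Doses ranged from 15 to 1000 g ai/ha. Pre-emerge pots were seeded one day earlier, post-emerge pots 8–21 days earlier. Fourteen days on, each pot was graded 0–100 for damage.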

[20] = system: field corn (Zea mays L., var. Dekalb 535, CORN); assay: Pre-emerge test, crop safety; conditions: crop damage rating 0-100, 14 days after application
Procedure, shortened: as §3

[21] = system: upland rice (Oryza sp., var. Tebonnet, RICE); assay: Post-emerge test, crop safety; conditions: post-emerge, 14 days after application, rating scale 0-100
Procedure, shortened: as §2

[22] = system: field corn (Zea mays L., var. Dekalb 535, CORN); assay: Post-emerge test, crop safety; conditions: post-emerge, 14 days after application, rating scale 0-100
Procedure, shortened: as §2

[23] = 63 g ai/ha, rating scale 0-100 (0 no damage, 100 complete death)
[24] = 250 g ai/ha, rating scale 0-100

Compound: Cn1c(C(F)(F)F)cc(=O)n(-c2c(F)cc(Cl)c(OCC#N)c2NC(=O)OCc2ccccc2)c1=O [4-23]
- Pre-emerge Herbicidal Activity AMARE ([1]; 63 g ai/ha): 100
- Pre-emerge Herbicidal Activity AMARE ([1]; 250 g ai/ha): 100
- phytotoxicity rating DIGSA ([2]; 63 g ai/ha): 10
- phytotoxicity rating DIGSA ([2]; 250 g ai/ha): 40
- phytotoxicity rating AMARE [3, 23]: 100
- phytotoxicity rating AMARE [3, 24]: 100
- phytotoxicity rating SORHA ([4]; 63 g ai/ha): 10
- phytotoxicity rating SORHA ([4]; 250 g ai/ha): 50
- phytotoxicity rating ECHCG ([5]; 63 g ai/ha): 20
- phytotoxicity rating ECHCG ([5]; 250 g ai/ha): 60
- phytotoxicity rating CHEAL ([6]; 63 g ai/ha): 80
- phytotoxicity rating CHEAL ([6]; 250 g ai/ha): 100
- phytotoxicity rating IPOHE ([7]; 63 g ai/ha): 100
- phytotoxicity rating IPOHE ([7]; 250 g ai/ha): 100
- phytotoxicity rating CASOB ([8]; 63 g ai/ha): 80
- phytotoxicity rating CASOB ([8]; 250 g ai/ha): 100
- phytotoxicity rating ABUTH ([9]; 63 g ai/ha): 100
- phytotoxicity rating ABUTH ([9]; 250 g ai/ha): 100
- phytotoxicity rating SETVI ([10]; 63 g ai/ha): 40
- phytotoxicity rating SETVI ([10]; 250 g ai/ha): 70
- Pre-emerge Herbicidal Activity DIGSA ([11]; 63 g ai/ha): 80
- Pre-emerge Herbicidal Activity DIGSA ([11]; 250 g ai/ha): 100
- Pre-emerge Herbicidal Activity SORHA ([12]; 63 g ai/ha): 70
- Pre-emerge Herbicidal Activity SORHA ([12]; 250 g ai/ha): 90
- Pre-emerge Herbicidal Activity ECHCG ([13]; 63 g ai/ha): 80
- Pre-emerge Herbicidal Activity ECHCG ([13]; 250 g ai/ha): 95
- Pre-emerge Herbicidal Activity CHEAL ([14]; 63 g ai/ha): 100
- Pre-emerge Herbicidal Activity CHEAL ([14]; 250 g ai/ha): 100
- Pre-emerge Herbicidal Activity IPOHE ([15]; 63 g ai/ha): 100
- Pre-emerge Herbicidal Activity IPOHE ([15]; 250 g ai/ha): 80
- Pre-emerge Herbicidal Activity CASOB ([16]; 63 g ai/ha): 80
- Pre-emerge Herbicidal Activity CASOB ([16]; 250 g ai/ha): 100
- Pre-emerge Herbicidal Activity ABUTH ([17]; 63 g ai/ha): 100
- Pre-emerge Herbicidal Activity ABUTH ([17]; 250 g ai/ha): 100
- Pre-emerge Herbicidal Activity SETVI ([18]; 63 g ai/ha): 80
- Pre-emerge Herbicidal Activity SETVI ([18]; 250 g ai/ha): 100
- Pre-emerge Herbicidal Activity RICE ([19]; 63 g ai/ha): 60
- Pre-emerge Herbicidal Activity RICE ([19]; 250 g ai/ha): 90
- Pre-emerge Herbicidal Activity CORN ([20]; 63 g ai/ha): 35
- Pre-emerge Herbicidal Activity CORN ([20]; 250 g ai/ha): 90
- phytotoxicity rating RICE (crop damage) ([21]; 63 g ai/ha): 60
- phytotoxicity rating RICE (crop damage) ([21]; 250 g ai/ha): 80
- phytotoxicity rating CORN (crop damage) ([22]; 63 g ai/ha): 35
- phytotoxicity rating CORN (crop damage) ([22]; 250 g ai/ha): 80

Compound: COc1c(Cl)cc(F)c(-n2c(=O)cc(C(F)(F)F)n(C)c2=O)c1NC(=O)OCc1c(F)cccc1F [4-29]
- Pre-emerge Herbicidal Activity AMARE ([1]; 63 g ai/ha): 100
- Pre-emerge Herbicidal Activity AMARE ([1]; 250 g ai/ha): 100
- phytotoxicity rating DIGSA ([2]; 63 g ai/ha): 50
- phytotoxicity rating DIGSA ([2]; 250 g ai/ha): 90
- phytotoxicity rating AMARE [3, 23]: 100
- phytotoxicity rating AMARE [3, 24]: 100
- phytotoxicity rating SORHA ([4]; 63 g ai/ha): 60
- phytotoxicity rating SORHA ([4]; 250 g ai/ha): 100
- phytotoxicity rating ECHCG ([5]; 63 g ai/ha): 70
- phytotoxicity rating ECHCG ([5]; 250 g ai/ha): 90
- phytotoxicity rating CHEAL ([6]; 63 g ai/ha): 90
- phytotoxicity rating CHEAL ([6]; 250 g ai/ha): 100
- phytotoxicity rating IPOHE ([7]; 63 g ai/ha): 100
- phytotoxicity rating IPOHE ([7]; 250 g ai/ha): 100
- phytotoxicity rating CASOB ([8]; 63 g ai/ha): 90
- phytotoxicity rating CASOB ([8]; 250 g ai/ha): 100
- phytotoxicity rating ABUTH ([9]; 63 g ai/ha): 100
- phytotoxicity rating ABUTH ([9]; 250 g ai/ha): 100
- phytotoxicity rating SETVI ([10]; 63 g ai/ha): 80
- phytotoxicity rating SETVI ([10]; 250 g ai/ha): 99
- Pre-emerge Herbicidal Activity DIGSA ([11]; 63 g ai/ha): 100
- Pre-emerge Herbicidal Activity DIGSA ([11]; 250 g ai/ha): 100
- Pre-emerge Herbicidal Activity SORHA ([12]; 63 g ai/ha): 70
- Pre-emerge Herbicidal Activity SORHA ([12]; 250 g ai/ha): 90
- Pre-emerge Herbicidal Activity ECHCG ([13]; 63 g ai/ha): 70
- Pre-emerge Herbicidal Activity ECHCG ([13]; 250 g ai/ha): 90
- Pre-emerge Herbicidal Activity CHEAL ([14]; 63 g ai/ha): 100
- Pre-emerge Herbicidal Activity CHEAL ([14]; 250 g ai/ha): 100
- Pre-emerge Herbicidal Activity IPOHE ([15]; 63 g ai/ha): 70
- Pre-emerge Herbicidal Activity IPOHE ([15]; 250 g ai/ha): 90
- Pre-emerge Herbicidal Activity CASOB ([16]; 63 g ai/ha): 40
- Pre-emerge Herbicidal Activity CASOB ([16]; 250 g ai/ha): 80
- Pre-emerge Herbicidal Activity ABUTH ([17]; 63 g ai/ha): 100
- Pre-emerge Herbicidal Activity ABUTH ([17]; 250 g ai/ha): 100
- Pre-emerge Herbicidal Activity SETVI ([18]; 63 g ai/ha): 100
- Pre-emerge Herbicidal Activity SETVI ([18]; 250 g ai/ha): 100
- Pre-emerge Herbicidal Activity RICE ([19]; 63 g ai/ha): 50
- Pre-emerge Herbicidal Activity RICE ([19]; 250 g ai/ha): 85
- Pre-emerge Herbicidal Activity CORN ([20]; 63 g ai/ha): 80
- Pre-emerge Herbicidal Activity CORN ([20]; 250 g ai/ha): 95
- phytotoxicity rating RICE (crop damage) ([21]; 63 g ai/ha): 60
- phytotoxicity rating RICE (crop damage) ([21]; 250 g ai/ha): 85
- phytotoxicity rating CORN (crop damage) ([22]; 63 g ai/ha): 80
- phytotoxicity rating CORN (crop damage) ([22]; 250 g ai/ha): 100
